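Method: 48-hour compound exposure of cells in 96-well plates, five concentrations, linear interpolation of endpoints. GI50 marks 50% less growth. TGI: concentration producing complete growth inhibition.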
What was measured:
Test in all cases: inhibition of tumour cell growth, NCI panel, 48 h
A498 renal = system: A498 renal
DLD-1 colon = system: DLD-1 colon
DMS 114 small cell lung = system: DMS 114 small cell lung
DU-145 prostate = system: DU-145 prostate
HCC-2998 colon = system: HCC-2998 colon
HT29 colon = system: HT29 colon
M19-MEL melanoma = system: M19-MEL melanoma
MALME-3M melanoma = system: MALME-3M melanoma
MDA-N = system: MDA-N
PC-3 prostate = system: PC-3 prostate
SK-MEL-2 melanoma = system: SK-MEL-2 melanoma
SK-MEL-5 melanoma = system: SK-MEL-5 melanoma
SNB-78 CNS = system: SNB-78 CNS

SMILES	TGI (A498 renal)	TGI (DLD-1 colon)	TGI (DMS 114 small cell lung)	TGI (DU-145 prostate)	TGI (HCC-2998 colon)	TGI (HT29 colon)	TGI (M19-MEL melanoma)	TGI (MALME-3M melanoma)	TGI (MDA-N)	TGI (PC-3 prostate)	TGI (SK-MEL-2 melanoma)	TGI (SK-MEL-5 melanoma)	TGI (SNB-78 CNS)	GI50 (MALME-3M melanoma)	GI50 (SK-MEL-2 melanoma)	GI50 (A498 renal)	GI50 (DU-145 prostate)	GI50 (HCC-2998 colon)	GI50 (PC-3 prostate)	GI50 (SK-MEL-5 melanoma)
C=C1C(=O)OC2/C=C(\CO)C3OC3C3OC3(C)CC(OC(=O)/C(=C/C)COC(C)=O)C12 (stereo not given)	27.7 µM	2.53 µM	13.2 µM	32.3 µM	37.1 µM	15.3 µM	3.94 µM	3.09 µM	13 µM	27 µM	6.78 µM	20.1 µM	13.4 µM							
COc1ccc(C(=O)c2[nH]c(Nc3cc(C)ccn3)c(C(=S)Nc3ccccc3)c2N)cc1	33.1 µM			> 100 µM	37.4 µM	39.4 µM		30.8 µM	56.2 µM	> 100 µM	24.2 µM									
Cc1c2cnccc2c(C)c2c1c1ccccc1n2CCCCCCCl	> 50 µM	> 50 µM	> 50 µM		> 50 µM	> 50 µM	> 50 µM	> 50 µM			> 50 µM	> 50 µM	49.8 µM							
Nc1nc2cc(COc3ccc(C(=O)O)cc3)ccc2nc1-c1ccccc1				> 10 µM	> 10 µM	> 10 µM			> 10 µM	> 10 µM	> 10 µM	> 10 µM								
Cc1ccc(C(=O)c2[nH]c(NCc3ccccc3)c(C(=S)Nc3ccccc3)c2N)cc1	31.6 µM			27 µM	2.65 µM	10.5 µM			12.3 µM	26.1 µM	22.8 µM									
Nc1nc(N)c2ncn(Cc3ccccc3CO)c2n1	> 100 µM			> 100 µM		> 100 µM		> 100 µM		> 100 µM	> 100 µM	> 100 µM								
O=C1Sc2sc(=S)sc2SC1c1ccccc1 (stereo not given)	> 100 µM	> 90.9 µM	> 100 µM		> 100 µM	> 100 µM	> 100 µM	> 83.5 µM			> 100 µM	> 100 µM	> 75.8 µM							
COc1cnc2oc3ccc(O)cc3c2c1-c1ccccc1	> 100 µM			> 100 µM	92.1 µM	> 100 µM		> 100 µM		> 100 µM	> 100 µM	> 100 µM								
O=C(c1ccsc1)c1nccc2c1cnc1ccccc12	> 100 µM			> 100 µM		> 100 µM		> 100 µM	> 100 µM	> 100 µM	> 100 µM	> 100 µM								
COc1ccc(C)cc1NC(=S)N/N=C/c1ccco1	> 100 µM			> 100 µM	> 100 µM	> 100 µM		> 100 µM	68.7 µM	> 100 µM	39.9 µM	32.9 µM								
O=c1c2cc([N+](=O)[O-])ccc2[nH]n1Cc1ccccc1Cl	> 100 µM			> 100 µM	> 100 µM	> 100 µM		> 100 µM	> 100 µM	> 100 µM		> 100 µM								
O=C(N/N=C/c1cc(Cl)cc(Cl)c1[O-])c1ccccc1O.O=C(N/N=C/c1cc(Cl)cc(Cl)c1[O-])c1ccccc1O.[Mn+2]					13.5 µM			7.79 µM			11.3 µM	2.63 µM		1.34 µM	0.285 µM					
O=C(O)C(C1NCCS1)N1C(=O)c2ccccc2C1=O (stereo not given)	> 100 µM			> 100 µM		> 100 µM		> 100 µM	> 100 µM	> 100 µM	> 100 µM	> 100 µM								
COc1cccc(/C=N/[N+](C)(C)C)c1O	> 10 µM			> 10 µM	> 10 µM	> 10 µM		> 10 µM	> 10 µM	> 10 µM	> 10 µM	> 10 µM								
Cc1ccnn1CCc1ccc(Cl)cc1Cl				> 100 µM		> 100 µM		> 100 µM	> 100 µM	> 100 µM		37.7 µM								
COc1ccc2[nH]c(=O)cc(C)c2c1[N+](=O)[O-]	> 100 µM	> 100 µM	> 100 µM		> 100 µM	> 100 µM	> 100 µM	> 100 µM			> 100 µM	> 100 µM	> 100 µM							
COc1cc2c(/C=C3/C(=O)Nc4cc(C)c(O)cc43)c(Cl)[nH]c2cc1C	43.2 µM			10.5 µM		5.31 µM		11.6 µM		21.9 µM	23.9 µM	12.5 µM								
CC(C)(C(=O)N(C(=O)N1CCN(c2ccccc2)CC1)S(=O)(=O)c1ccccc1)c1ccc(Cl)cc1	80.8 µM			> 100 µM	> 100 µM	> 100 µM		> 100 µM	> 100 µM	70.3 µM	53.9 µM	> 100 µM								
CCOC(=O)C1=C(C)N(Cc2ccccc2)C2(O)C=CC(=O)C3C(=O)N(c4ccccc4)C(=O)C132 (stereo not given)	28.1 µM			7.63 µM	3.2 µM	3.33 µM		7.68 µM	12.5 µM	6.88 µM	3.98 µM	12.8 µM								
C=C1C(=O)OC2/C=C(CO)/C=C\C3OC3(C)CC(OC(=O)/C(C)=C/COC(C)=O)C12 (stereo not given)	20.6 µM	2.49 µM	10.9 µM	30.2 µM	28.8 µM	7.39 µM	4.15 µM	3.38 µM	4.13 µM	21.6 µM	7.88 µM	15.9 µM	23.4 µM							
C=CCn1c(C)nc2cc(Nc3nc(N4CCCC4)nc4nc[nH]c34)ccc21	> 100 µM			> 100 µM	> 100 µM					> 100 µM	> 100 µM	> 100 µM			> 100 µM	> 100 µM	> 100 µM	> 100 µM	> 100 µM	> 100 µM
CS(C)(=O)=Nn1c(=O)n2n(c1=O)[C@H]1CC[C@@H]2C1	> 100 µM			> 100 µM		> 100 µM		> 100 µM	> 100 µM	> 100 µM	> 100 µM	> 100 µM								
O=C1C=CC2(C=C1)O[C@H](CCc1ccccc1)[C@@H](CCc1ccccc1)O2	> 100 µM			> 100 µM		> 100 µM		> 100 µM	> 100 µM	> 100 µM	> 100 µM	> 100 µM								
CSc1nc2c(ncn2C2OC(CO)C(O)C(O)C2O)c(=O)n1C (stereo not given)	> 100 µM	> 100 µM	> 100 µM		> 100 µM	> 100 µM	> 100 µM	> 100 µM			> 100 µM	> 100 µM	> 100 µM							
